According to patent US20150164762A1, “USE OF ETHANOLAMINE PHOSPHATE” (priority 2012, published 2015):

How the values were obtained:
HEK 293 = test: WST-8 proliferation test, HEK 293 immortalized model cells; format: cell-based, human; details: 0% FBS, 96 hours, even at high concentrations
Method: 0% FBS RPMI-1640 was used as the medium. 24 hours after seeding the cells were washed with 20 μl per well of PBS, and the medium was replaced with 0% FBS RPMI-1640. Following medium replacement, EP solution with 10 times the set concentration was added 10 μl per well, and a proliferation test (WST-8 assay) was performed 96 hours after addition of EP.

HBEpC cells = test: WST-8 proliferation test, primary normal human airway epithelial cells (HBEpC); format: cell-based
Method: BEGM (Takara Bio, complete medium) was used as the medium. […] Following medium replacement, 10 μl per well of an EP solution of 10 times the set concentration was added, and after 96 hours a proliferation test (WST-8 assay) was performed.

NCCOP(=O)(O)O [EP, Ethanolamine phosphate]
cell proliferation ability (HEK 293): absolutely no cell proliferation ability | growth-stimulating effect (HBEpC cells; 7 μM, BEBM basal medium, 96 hours): roughly two-fold | toxicity (HBEpC cells; mM level): no toxicity
